{"source": "paper PMC12176268", "about": "“Structural Features and Photophysical and Antiproliferative Properties of Me2N‑pbt-Cycloplatinated Complexes with Picolinate Ligands” (Inorganic Chemistry, 2025)", "key": {"MDA-MB-231": {"system": "MDA-MB-231", "assay": "MTT cell viability assay on MDA-MB-231 cells, dark and 450 nm irradiation", "type": "cell-based, human", "settings": "for EC50: MTT", "from_the_text": "(C∧N) cyclometalated Pt(II) complexes have been previously reported to have strong antiproliferative activities when associated with phenanthroline-based, diphosphine, acyclic diamino carbenes, or picolinate ligands. In particular, (Me2N-pbt)-cyclometalated platinum complexes have been previously reported by some of us to have antiproliferative properties in the micromolar range on a panel of cancer cell lines, prompting us to investigate the anticancer properties of complexes 1–4 in dark conditions and, considering their high quantum yield (ϕΔ) of ^1O2 generation, under irradiation conditions. Due to the poor solubility of the complexes in an aqueous environment, complexes 1–4 were first dissolved in DMSO and diluted in the culture media to reach a final concentration of 1% DMSO when incubated with the cells. All complexes were screened against the so-called “triple-negative” breast cancer cell line MDA-MB-231, lung adenocarcinoma cell line A549, and the noncancerous breast cell line MCF-10A for 72 h in dark conditions and under 5 min irradiation at 450 nm (see Experimental Section for details). The irradiation time was kept short to prevent light-induced toxicity of the energetic wavelength observed at longer irradiation times (data not shown). The measurement of the effective concentration at 50% (EC50) was carried out using the classical MTT assay, and the data are provided in Table .\nIn dark conditions, we could notice a strong influence of substituents on the picolinate ligands. […] This can be correlated with its poor stability in the culture medium mentioned above, which might reduce its cellular uptake. […] However, in dark conditions, no particular selectivity for cancer cells could be observed with similar activity measured against the noncancerous cell line MCF-10A. For the “light” experiments, the cells were preincubated with the complexes for 4 h in the dark, irradiated at 450 nm for 5 min, and then put back in the dark until 72 h. The photoactivity index (PI) values, defined as the ratio between the EC50 in dark conditions and the EC50 after irradiation for each cell line, are shown in Figure .\nThe human lung adenocarcinoma cell line A549 and human breast cancer cell line MDA-MB-231 were cultivated in DMEM (Dulbecco’s modified Eagle’s medium) containing GlutaMax I supplemented with 10% FBS at 37 °C in a humidified atmosphere and 5% CO2. The noncancerous cell line MCF-10A was maintained in DMEM:F12 (1:1) cell culture media, 5% heat-inactivated horse serum, supplemented with HEPES (20 mM), L-glutamine (2 mM), epidermal growth factor (20 ng/mL), hydrocortisone (500 ng/mL), cholera toxin (100 ng/mL), and insulin (10 μg/mL). Cell viability was evaluated by using a colorimetric method based on the tetrazolium salt MTT [3-(4,5-dimethylthiazol-2-yl)-2,5-diphenyltetrazolium bromide], which is reduced by viable cells to yield purple formazan crystals. Cells were seeded in 96-well plates at a density of 40000 cells/mL (100 μL per well). Stock solutions were prepared in DMSO for complexes 1–4 and in water for cisplatin. […] For dark experiments, after overnight attachment, a dilution series of the compounds was added to the medium, and the cells were incubated for a further 72 h. For the irradiated experiments, after overnight attachment, a dilution series of the compounds was added to the medium, and the cells were preincubated for 4 h. The cells were then irradiated at 450 nm for 5 min with a Kessil Lamp (power: 3 mW/cm^2, 1.13 × 10^–8 Einstein/s at 20 cm distance between the light source and 96-well plate) and the incubation was continued until 72 h. After 72 h, the medium was removed and the cells were incubated with MTT solution in PBS (10 μL of 5 mg/mL) for 2–3 h. The formed purple formazan crystals were dissolved in 100 μL of DMSO by thorough shaking, and the absorbance at 580 nm was read using a microplate reader (FLUOstar OPTIMA, BMG Labtech). Each test was performed with at least 3 replicates and repeated at least 3 times. […]"}, "[1]": {"assay": "Catalytic oxidation and photooxidation of NADH monitored by 1H NMR", "type": "biochemical", "from_the_text": "NADH is a key coenzyme involved in many biocatalyzed redox reactions in living cells, and the adequate redox balance of the NADH/NAD^+ redox couple is an important indicator of the metabolic state of the cell. Indeed, the overall in-cell NADH level is higher in cancerous cells than in normal cells to ensure high cell proliferation. Therefore, any selective catalysis of intracellular NADH oxidation to NAD^+ by a metal complex in cancer cells can disrupt its intracellular redox balance, causing cell death. , The catalytic oxidation and photooxidation of NADH (2.8 mM) by 3 (0.8 mM) in DMSO/D2O (5/95 v/v) was monitored by ^1H NMR spectroscopy at 298 K (Figure S34). In the dark (NADH + 3 + dark), a new set of characteristic peaks at 9.33, 9.17, 8.81, 8.48, 8.43, 8.20, 8.16, 6.04, and 5.97 ppm, ascribed to the protons of NAD^+ (∼8%), were detected after 72 h. Light irradiation greatly accelerates the oxidation process. In fact, ∼33% of NADH was oxidized to NAD^+ after irradiation (460 nm, 2 h), with an oxidation turnover number (TON) of 1.4 after 2 h (TOF 0.7 h^–1). […] It should be noted that platinum(II) complexes showing biocatalytic activity on the NADH/NAD^+ redox couple are very scarce.\nThe time dependence of the catalytic oxidation and photooxidation of complex 3 (0.8 mM) with NADH (2.8 mM) in DMSO/D2O (5/95 v/v) was studied for 72 h in the dark or 2h with light irradiation (λexc = 460 nm) by ^1H NMR at 298 K. The conversion of NADH to NAD^+ was approximately calculated from the NMR data."}}, "note": "Where two headings read alike, the source gives them in different places."}
{"substance": "[Pt(Me2N-pbt)(3-OH-pic-κN,O)] [Complex 3]", "values": [{"measurement": "EC50", "setting": "MDA-MB-231; 4 h preincubation, 5 min irradiation at 450 nm, then dark until 72 h, read-out: EC50 MDA-MB-231 light", "result": "220 ± 30", "unit": "nM"}, {"measurement": "EC50", "setting": "MDA-MB-231; 72 h incubation at 37 °C, dark, read-out: EC50 MDA-MB-231 dark", "result": "2600 ± 800", "unit": "nM"}, {"measurement": "reduction of the antiproliferative activity relative to 1, MDA-MB-231", "setting": "MDA-MB-231; dark conditions", "result": "~5", "unit": "times"}, {"measurement": "lower activity toward MDA-MB-231 cells compared to the noncancerous cells", "setting": "MDA-MB-231; dark conditions, versus MCF-10A", "result": 2, "unit": "fold"}, {"measurement": "activity on MDA-MB-231 compared to the noncancerous cell line", "setting": "MDA-MB-231; upon irradiation (450 nm, 5 min), versus MCF-10A", "result": "twice as active"}, {"measurement": "TOF", "setting": "[1]; 460 nm irradiation, 2 h", "result": 0.7, "unit": "h^–1"}, {"measurement": "oxidation turnover number (TON)", "setting": "[1]; 460 nm irradiation, after 2 h", "result": 1.4}, {"measurement": "NADH oxidized to NAD+ after irradiation", "setting": "[1]; NADH 2.8 mM, complex 0.8 mM, DMSO/D2O 5/95, 298 K, 460 nm, 2 h", "result": "~33", "unit": "%"}, {"measurement": "NAD+ formed from NADH in the dark", "setting": "[1]; NADH 2.8 mM, complex 0.8 mM, DMSO/D2O 5/95, 298 K, dark, 72 h", "result": "~8", "unit": "%"}]}
